Reference: PMC11477875, “Ecotoxicity and Mutagenicity Assessment of Novel Antifungal Agents VT-1161 and T-2307” (Molecules, 2024)
≈ marks a conversion by molar mass, not a printed value. Like-named read-outs stand apart in the source and are kept apart here.

Legend:
D. magna [1] = details: cited from earlier work
Green algae [2] = details: cited from earlier work
D. magna [3] = assay: Literature D. magna toxicity data used for hazard ranking; assay type: in vivo, Daphnia magna; details: for Hazard Ranking: GHS, from literature EC50 D. magna 48 h
Excerpt: (§1) The hazard ranking of antifungal compounds is crucial for understanding their environmental impact and guiding regulatory decisions. This study utilizes data from existing literature to classify the effective concentrations (EC50) of various antifungal compounds according to the Globally Harmonized System of Classification and Labelling of Chemicals (GHS).
(§2) Furthermore, multiple fungicide compounds were classified according to the Globally Harmonized System of Classification and Labeling of Chemicals (GHS) to compare the hazard ranking of substances currently on the market and the two substances of this study.

R. subcapitata [4] = assay: Literature R. subcapitata toxicity data used for hazard ranking; assay type: cell-based, Raphidocelis subcapitata; details: GHS, from literature EC50 R. subcapitata 72 h
Excerpt: as §1, §2

R. subcapitata [5] = details: cited from earlier work
Green algae [6] = assay: Literature green algae toxicity data used for hazard ranking; assay type: cell-based; details: GHS
Excerpt: as §1, §2

[7] = tested on: A. fischeri, R. subcapitata, and D. magna; assay: Summary over the species tested (A. fischeri, R. subcapitata, D. magna) and GHS classification
Experimental: (§3) Data were analyzed with R Studio for Windows (Version 2023.06.0). The effective concentrations causing 50% of the response on the organisms A. fischeri, R. subcapitata, and D. magna were estimated by fitting on dose–response models using the extension package “drc” [49]. For the data analysis of R. subcapitata and A. fischeri tests, the measurements were normalized to the control to estimate an inhibition percentage.
as §2

Aliivibrio fischeri = Aliivibrio fischeri luminescence inhibition test (this study); assay type: cell-based
Experimental: The luminescence inhibition test was performed on Allivibrio fischeri (strain NRRL-B-11177), purchased from WaterTox STD (ECOtest S.L., Valencia, Spain), and performed according to [46]. The luminescence was measured using a Microtox luminometer Model 500, (AZUR Environmental, Carlsbad, CA, USA) equipped with a cell incubated at a constant temperature of 15 ± 1 °C, and readings were taken after 30 min of exposure at a wavelength of 490 nm. The Osmotic Adjustment Solution was added to the media to adapt the marine bacterium to freshwater. […] Data were analyzed with R Studio for Windows (Version 2023.06.0). The effective concentrations causing 50% of the response on the organisms A. fischeri, R. subcapitata, and D. magna were estimated by fitting on dose–response models using the extension package “drc” [49]. For the data analysis of R. subcapitata and A. fischeri tests, the measurements were normalized to the control to estimate an inhibition percentage.

Daphnia magna = Daphnia magna acute immobilization test (this study); assay type: in vivo; details: for immobility: 50 mg L^−1; for Hazard Ranking: GHS, from EC50 D. magna 48 h, this study
Experimental: The immobilization tests with D. magna were conducted following ISO guidelines using an in-house culture at the Hygiene Department at the UNINA. Organisms under 24 h old were exposed to concentrations of 1.56, 3.12, 6.25, 12.50, 25, and 50 mg L^−1 and to a negative control of freshwater media. Each concentration had four replicates containing five organisms each. The exposure was conducted at a temperature of 20 ± 1 °C and under continuous illumination of approx. 1000 lux. Immobilization was assessed at 24 and 48 h after exposure using a stereomicroscope.
as §3

[8] = tested on: Salmonella typhimurium strain TA100; assay: Salmonella typhimurium mutagenicity assay; assay type: cell-based; details: for mutagenicity (result in words): TA100, 1.56 and 50 mg L^−1; for mutagenicity ratio: TA100, both concentrations 1.56 and 50 mg L^−1, mutagenic if ratio 2 or greater
Experimental: The mutagenicity in Salmonella typhimurium strain TA100 was assessed by observing the potential mutations that would allow the bacteria to grow without needing histidine (his-), following the protocol. For the assay, a kit obtained from ECOTOX LDS (Milan, Italy) was used to perform the test. Two exposure concentrations of 1.56 and 50 mg L^−1 of each compound were used and bromocresol purple was added as a pH indicator. Distilled water served as the negative control and sodium azide as the positive control for TA100 without S9 ([…]).
The plates were incubated at 37 °C for 3 to 5 days and sealed in hermetic plastic bags to avoid contamination. […] Wells that remained purple indicated a negative result (non-mutagenic compound).
For the test organism S. typhimurium, results were expressed as the mutagenicity ratio. This was calculated by dividing the number of revertants (his+) in the treatments by the number of naturally occurring (negative control). The treatments were considered mutagenic if the mutagenicity ratio was 2 or greater.

Raphidocelis subcapitata = Raphidocelis subcapitata growth inhibition test (this study); assay type: cell-based; details: for Hazard Ranking: GHS, from EC50 R. subcapitata 72 h, this study
Experimental: The growth inhibition test with R. subcapitata was conducted following ISO guidelines using an in-house culture at the Hygiene Department at the UNINA. Algal cultures were incubated in Erlenmeyer flasks at 20 ± 1 °C on a shaker at 100 rpm and under continuous daylight fluorescent tube illumination of approximately 6300 lux with […]. The initial inoculum concentration was set at 10^4 cells mL^−1, exposed to the concentrations of 1.56, 3.12, 6.25, 12.50, 25, and 50 mg L^−1 and to a negative control of freshwater media. Six replicates were set up for both the control samples and the treatments and were maintained under the same conditions as the algal culture for 72 h.
as §3

OC(Cn1cncn1)(Cn1cncn1)c1ccc(F)cc1F [Fluconazole]
EC50 (D. magna [1]; 48 h ref 30): 0.002766 mg/L (≈ 0.00903 µM) | EC50 (D. magna [1]; 48 h ref 37): 530 mg/L (≈ 1730 µM) | EC50 (Green algae [2]; 96 h ref 30): 0.001162 mg/L (≈ 0.00379 µM) | EC50 (Green algae [2]; 96 h ref 37): 55.4 mg/L (≈ 181 µM) | GHS hazard category (in words) (D. magna [3]; from literature EC50 D. magna, EC50 > 100 mg L^−1): not harmful

CC(C)(C)C(O)(CCc1ccc(Cl)cc1)Cn1cncn1 (centres unmarked) [Tebuconazole]
Hazard Ranking (R. subcapitata [4]): *** (Toxic (<1 mg L^−1 ≤ 10 mg L^−1)) | EC50 (D. magna [1]; 48 h ref 41): 2.37 mg/L (≈ 7.7 µM) | EC50 (D. magna [1]; 48 h ref 42): 6.75 mg/L (≈ 21.9 µM) | EC50 (R. subcapitata [5]; 72 h ref 42): 2.09 mg/L (≈ 6.79 µM) | Hazard Ranking (D. magna [3]): *** (Toxic (<1 mg L^−1 ≤ 10 mg L^−1))

CC(=O)N1CCN(c2ccc(OCC3COC(Cn4ccnc4)(c4ccc(Cl)cc4Cl)O3)cc2)CC1 (centres unmarked) [Ketoconazole]
Hazard Ranking (Green algae [6]; from literature EC50 green algae 72 h): **** (Very toxic (≤1 mg L^−1)) | Hazard Ranking (Green algae [6]; from literature EC50 green algae 96 h): *** (Toxic (<1 mg L^−1 ≤ 10 mg L^−1)) | Hazard Ranking (R. subcapitata [4]): **** (Very toxic (≤1 mg L^−1)) | EC50 (D. magna [1]; 48 h ref 30): 2.39 mg/L (≈ 4.5 µM) | EC50 (D. magna [1]; 48 h ref 34): 6.57 mg/L (≈ 12.4 µM) | EC50 (D. magna [1]; 48 h ref 38): 6.57 mg/L (≈ 12.4 µM) | EC50 (D. magna [1]; 48 h ref 39, listed as ketoconazole): 1.51 mg/L (≈ 2.84 µM) | EC50 (D. magna [1]; 48 h ref 39): 1.5 mg/L (≈ 2.82 µM) | EC50 (R. subcapitata [5]; 72 h ref 36): 0.28 mg/L (≈ 0.527 µM) | EC50 (R. subcapitata [5]; 72 h ref 40): 0.3 mg/L (≈ 0.565 µM) | EC50 (Green algae [2]; 72 h ref 38): 0.28 mg/L (≈ 0.527 µM) | EC50 (Green algae [2]; 96 h ref 30): 4.36 mg/L (≈ 8.2 µM) | Hazard Ranking (D. magna [3]): *** (Toxic (<1 mg L^−1 ≤ 10 mg L^−1))

O[C@@](Cn1cnnn1)(c1ccc(F)cc1F)C(F)(F)c1ccc(-c2ccc(OCC(F)(F)F)cc2)cn1 [VT-1161, oteseconazole]
EC50 ([7]; A. fischeri, R. subcapitata, D. magna, read-out: EC50 values, range over the species tested): 20.9 to 27.9 mg/L (≈ 39.7 to 52.9 µM) | GHS classification (in words) ([7]; EC50 values between 10 mg L^−1 and 100 mg L^−1): harmful | EC50 (Aliivibrio fischeri; Aliivibrio fischeri, 0.5 h, read-out: EC50 (effective concentration causing 50% luminescence inhibition), A. fischeri, 30 min): 22.4 mg/L (≈ 42.5 µM) | inhibition at 50 µg/mL (Aliivibrio fischeri; Aliivibrio fischeri, 0.5 h, A. fischeri, 30 min, 50 mg L^−1): ~63% | Hazard Ranking (Aliivibrio fischeri; GHS, from EC50 A. fischeri 30 min, this study): ** (Harmful: (<10 mg L^−1 ≤ 100 mg L^−1)) | immobility (Daphnia magna; D. magna, 48 h): 100% | EC50 (Daphnia magna; Daphnia magna, read-out: EC50 (effective concentration causing 50% of immobility), D. magna, 48 h): 20.9 mg/L (≈ 39.7 µM) | Hazard Ranking (Daphnia magna): ** (Harmful: (<10 mg L^−1 ≤ 100 mg L^−1)) | mutagenicity (result in words) [8]: non-positive mutagenicity | mutagenicity ratio [8]: < 2 | Hazard Ranking (Raphidocelis subcapitata): ** (Harmful: (<10 mg L^−1 ≤ 100 mg L^−1)) | EC50 (Raphidocelis subcapitata; Raphidocelis subcapitata, read-out: EC50 (effective concentration causing 50% growth inhibition), R. subcapitata, 72 h): 27.9 mg/L (≈ 52.9 µM) | inhibition at 50 µg/mL (Raphidocelis subcapitata; Raphidocelis subcapitata, R. subcapitata, 72 h, 50 mg L^−1): ~65%

CC(C)(C)C(=O)C(Oc1ccc(Cl)cc1)n1ccnc1 (centres unmarked) [climbazole]
EC50 (D. magna [1]; exposure time not printed ref 30): 15.99 mg/L (≈ 54.6 µM)

N=C(N)c1ccc(OCCCC2CCN(CCCOc3ccc(C(=N)N)cc3)CC2)cc1 [T-2307]
EC50 (effective concentration causing 50% luminescence inhibition) (Aliivibrio fischeri; A. fischeri, 30 min): 22.58 mg/L (≈ 51.6 µM) | luminescence inhibition (Aliivibrio fischeri; A. fischeri, 30 min, 50 mg L^−1): ~75% | EC50 (effective concentration causing 50% of immobility) (Daphnia magna; D. magna, 48 h): 17.93 mg/L | immobility (Daphnia magna; D. magna, 48 h): 90% | Hazard Ranking (Daphnia magna): ** (Harmful: (<10 mg L^−1 ≤ 100 mg L^−1)) | mutagenicity (result in words) [8]: non-positive mutagenicity | mutagenicity ratio [8]: < 2 | Hazard Ranking (Raphidocelis subcapitata): ** (Harmful: (<10 mg L^−1 ≤ 100 mg L^−1)) | EC50 (effective concentration causing 50% growth inhibition) (Raphidocelis subcapitata; R. subcapitata, 72 h): 14.34 mg/L (≈ 32.8 µM) | growth inhibition (Raphidocelis subcapitata; R. subcapitata, 72 h, 50 mg L^−1): around 82%
